The conditions of assay [1]: lowering of blood pressure, hyperglycemic activity, inhibitory action on central nervous system; cited from earlier work.
The subject of assay [2] is castor-oil-induced diarrhea. Description: Castor oil-induced diarrhea in rats. As to conditions: Rattus norvegicus, po, 4 h, read-out: Castor Oil ID50 (mg/kg)-4 hr.

Counter-ions that a name gives are not always drawn.

For the compound `Clc1cccc(Cl)c1N=C1CCCN1` [2-(2,6-dichloroophenylimino)pyrrolidine], the “pharmacodynamic activity in words” value in assay [1] was “pharmacodynamically active”. `Cc1cc(N)ccc1NC1=NCCC1.Cl.Cl` [Example 9, 2-[(2-Methyl-4-aminophenyl)amino]-1-pyrroline, dihydrochloride]: in assay [2], the ED50 worked out at 0.97 mg/kg.

On to `Cc1cc(N)cc(C)c1NC1=NCCC1.Cl.Cl` [Example 11, 2-[(2,6-Dimethyl-4-aminophenyl)amino]-1-pyrroline, dihydrochloride], for which, in assay [2], the ED50 came out at 13.6 mg/kg.

For `CC(=O)Nc1ccc(NC2=NCCC2)c(C)c1` [Example 16, 2-[(2-Methyl-4-acetamidopheny)amino]-1-pyrroline, hydrochloride], the ED50 in assay [2] is 3.63 mg/kg. Take `CCC(=O)Nc1ccc(NC2=NCCC2)c(C)c1.Cl` [Example 18, 2-[(2-Methyl-4-(propanamido)phenyl)amino]-1-pyrroline, hydrochloride]: the ED50 in assay [2] came out at 0.97 mg/kg.

`CCOC(=O)Nc1ccc(NC2=NCCC2)c(C)c1.Cl` [Example 23, 2-[(2-Methyl-4-(ethoxycarbonylamino)phenyl)-amino]-1-pyrroline, hydrochloride]: the ED50 in assay [2] came to 1.81 mg/kg.

(Values after patent US4533739A, “2-[(Aminophenyl and amidophenyl)amino]-1-azacycloalkanes having antidiarrheal activity” (G. D. Searle & Co., priority 1982, dated 1985).)
